Data taken from paper PMC7531004, “Discovery of gramicidin A analogues with altered activities by multidimensional screening of a one-bead-one-compound library” (Nature Communications, 2020).
Where a SMILES comes first, the peptide text is derived from it. [ ]: non-standard residue; d: D form. The star is where a group is joined. NHCH2CH2OH = OCCN*; For = O=C*

Assays:
[1] = test system: P388 mouse leukemia cells; details: 92 h
Summary of the method: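 Peptide stocks diluted 250× in growth medium; P388 cells 1 × 10^4 cells/mL final; 37 °C, 5% CO2, 92 h. WST-1 + 1-methoxy PMS, 4 h, A415. Output: % viability.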

[2] = H+/Na+ transport assay of bead-derived peptides (one-point); type: biochemical; design: key: relative activity; mean of two control wells = 1.00; details: bead-derived peptide solution, EYPC/EYPG LUVs;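 further: relative to parent gramicidin A activity set to 1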
Summary of the method: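 Pyranine (1.0 mM)-loaded LUVs containing egg yolk phosphatidylglycerol were prepared by film hydration, sonication and extrusion, then mixed with diluted bead-derived peptide in 96-well format and vortexed 30 min at room temperature. Fluorescence was normalized between untreated LUVs (0%) and Triton X-100 lysis (100%).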

[3] = test system: Streptococcus pyogenes SSI-9; assay: Antibacterial activity assay of bead-derived peptides (three concentrations); type: cell-based; design: key: +++: inhibition by the 640-fold diluted peptide solution; ++: inhibition by the 160-fold diluted solution; +: inhibition by the 40-fold diluted solution; -: no inhibition; details: S. pyogenes, bead-derived peptide solution, three concentrations
Summary of the method: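 First, each peptide stock was diluted 4- and 16-fold in DMSO; next, the three solutions were mixed with S. pyogenes SSI-9 suspension (2 × 10^5 CFU) in cation-adjusted Mueller Hinton Broth plus 5% laked horse blood; finally, plates stood 18 h at 37 °C before checking for grown-cell precipitation.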

SMILES: CC(C)C[C@@H](NC(=O)[C@H](Cc1c[nH]c2ccccc12)NC(=O)[C@H](NC(=O)[C@H](Cc1c[nH]c2ccccc12)NC(=O)[C@H](NC(=O)[C@H](Cc1c[nH]c2ccccc12)NC(=O)[C@H](NC(=O)[C@@H](NC(=O)[C@H](NC(=O)[C@H](C)NC(=O)[C@H](NC(=O)[C@H](C)NC(=O)CNC(=O)[C@@H](NC=O)C(C)C)[C@H](C)O)C(C)C)C(C)C)C(C)C)C(C)C)C(C)C)C(=O)N[C@@H](Cc1c[nH]c2ccccc12)C(=O)NCCO [compound 9354] (For-VGA[dT]A[dV]V[dV]W[dV]W[dV]W[dL]W-NHCH2CH2OH)
- cell viability/% [1]: 100.0%
- H+/Na+ transport activity normalized against the value of 1 (1.00) [2]: 1.16
- antibacterial activity [3]: -

SMILES: CC(C)C[C@@H](NC(=O)[C@H](C)NC(=O)CNC(=O)[C@@H](NC=O)C(C)C)C(=O)N[C@@H](C)C(=O)N[C@H](CC(C)C)C(=O)N[C@H](C(=O)N[C@H](CC(C)C)C(=O)N[C@@H](Cc1c[nH]c2ccccc12)C(=O)N[C@H](CC(C)C)C(=O)N[C@@H](Cc1c[nH]c2ccccc12)C(=O)N[C@@H](C(=O)N[C@@H](Cc1c[nH]c2ccccc12)C(=O)N[C@H](CC(C)C)C(=O)N[C@@H](Cc1c[nH]c2ccccc12)C(=O)NCCO)C(C)C)C(C)C [compound 9473] (For-VGA[dL]A[dL]V[dL]W[dL]W[dV]W[dL]W-NHCH2CH2OH)
- cell viability/% [1]: 0.0%
- H+/Na+ transport activity normalized against the value of 1 (1.00) [2]: 1.04
- antibacterial activity [3]: -

SMILES: CC(C)C[C@@H](NC(=O)[C@H](C)NC(=O)[C@H](NC(=O)[C@H](C)NC(=O)CNC(=O)[C@@H](NC=O)C(C)C)C(C)C)C(=O)N[C@H](C(=O)N[C@@H](C(=O)N[C@@H](Cc1c[nH]c2ccccc12)C(=O)N[C@H](CC(C)C)C(=O)N[C@@H](Cc1c[nH]c2ccccc12)C(=O)N[C@@H](C(=O)N[C@@H](Cc1c[nH]c2ccccc12)C(=O)N[C@@H](C(=O)N[C@@H](Cc1c[nH]c2ccccc12)C(=O)NCCO)C(C)C)C(C)C)[C@H](C)O)C(C)C [compound 9487] (For-VGA[dV]A[dL]V[dT]W[dL]W[dV]W[dV]W-NHCH2CH2OH)
- cell viability/% [1]: 100.0%
- H+/Na+ transport activity normalized against the value of 1 (1.00) [2]: 1.15
- antibacterial activity [3]: -

SMILES: CNC(=O)C[C@@H](NC(=O)[C@@H](NC(=O)[C@H](NC(=O)[C@H](C)NC(=O)[C@@H](CC(C)C)NC(=O)[C@H](C)NC(=O)CNC(=O)[C@@H](NC=O)C(C)C)C(C)C)C(C)C)C(=O)N[C@@H](Cc1c[nH]c2ccccc12)C(=O)N[C@@H](C(=O)N[C@@H](Cc1c[nH]c2ccccc12)C(=O)N[C@H](CC(C)C)C(=O)N[C@@H](Cc1c[nH]c2ccccc12)C(=O)N[C@@H](C(=O)N[C@@H](Cc1c[nH]c2ccccc12)C(=O)NCCO)C(C)C)C(C)C [compound 9521] (For-VGA[dL]A[dV]V[dD](NHMe)W[dV]W[dL]W[dV]W-NHCH2CH2OH)
- cell viability/% [1]: 100.0%
- H+/Na+ transport activity normalized against the value of 1 (1.00) [2]: 1.14
- antibacterial activity [3]: -

SMILES: CC(C)C[C@@H](NC(=O)[C@H](C)NC(=O)[C@H](NC(=O)[C@H](C)NC(=O)CNC(=O)[C@@H](NC=O)C(C)C)C(C)C)C(=O)N[C@H](C(=O)N[C@@H](C(=O)N[C@@H](Cc1c[nH]c2ccccc12)C(=O)N[C@H](CC(C)C)C(=O)N[C@@H](Cc1c[nH]c2ccccc12)C(=O)N[C@H](CC(C)C)C(=O)N[C@@H](Cc1c[nH]c2ccccc12)C(=O)N[C@@H](C(=O)N[C@@H](Cc1c[nH]c2ccccc12)C(=O)NCCO)C(C)C)C(C)C)C(C)C [compound 9535] (For-VGA[dV]A[dL]V[dV]W[dL]W[dL]W[dV]W-NHCH2CH2OH)
- cell viability/% [1]: 3.8%
- H+/Na+ transport activity normalized against the value of 1 (1.00) [2]: 1.16
- antibacterial activity [3]: -

SMILES: CC(C)C[C@@H](NC(=O)[C@H](Cc1c[nH]c2ccccc12)NC(=O)[C@H](NC(=O)[C@H](Cc1c[nH]c2ccccc12)NC(=O)[C@H](NC(=O)[C@@H](NC(=O)[C@H](NC(=O)[C@H](C)NC(=O)[C@H](NC(=O)[C@H](C)NC(=O)CNC(=O)[C@@H](NC=O)C(C)C)C(C)C)C(C)C)C(C)C)C(C)C)C(C)C)C(=O)N[C@@H](Cc1c[nH]c2ccccc12)C(=O)N[C@@H](C(=O)N[C@@H](Cc1c[nH]c2ccccc12)C(=O)NCCO)C(C)C [compound 9571] (For-VGA[dV]A[dV]V[dV]W[dV]W[dL]W[dV]W-NHCH2CH2OH)
- cell viability/% [1]: 100.0%
- H+/Na+ transport activity normalized against the value of 1 (1.00) [2]: 1.14
- antibacterial activity [3]: +

SMILES: CC(C)C[C@@H](NC(=O)[C@H](C)NC(=O)CNC(=O)[C@@H](NC=O)C(C)C)C(=O)N[C@@H](C)C(=O)N[C@H](CC(C)C)C(=O)N[C@H](C(=O)N[C@@H](C(=O)N[C@@H](Cc1c[nH]c2ccccc12)C(=O)N[C@H](CC(C)C)C(=O)N[C@@H](Cc1c[nH]c2ccccc12)C(=O)N[C@@H](C(=O)N[C@@H](Cc1c[nH]c2ccccc12)C(=O)N[C@@H](C(=O)N[C@@H](Cc1c[nH]c2ccccc12)C(=O)NCCO)C(C)C)C(C)C)C(C)C)C(C)C [compound 9607] (For-VGA[dL]A[dL]V[dV]W[dL]W[dV]W[dV]W-NHCH2CH2OH)
- cell viability/% [1]: 48.6%
- H+/Na+ transport activity normalized against the value of 1 (1.00) [2]: 1.03
- antibacterial activity [3]: +

SMILES: CNC(=O)C[C@@H](NC(=O)[C@H](Cc1c[nH]c2ccccc12)NC(=O)[C@@H](CC(C)C)NC(=O)[C@H](Cc1c[nH]c2ccccc12)NC(=O)[C@H](NC(=O)[C@H](Cc1c[nH]c2ccccc12)NC(=O)[C@H](NC(=O)[C@@H](NC(=O)[C@@H](CC(C)C)NC(=O)[C@H](C)NC(=O)[C@@H](CC(C)C)NC(=O)[C@H](C)NC(=O)CNC(=O)[C@@H](NC=O)C(C)C)C(C)C)C(C)C)C(C)C)C(=O)N[C@@H](Cc1c[nH]c2ccccc12)C(=O)NCCO [compound 9609] (For-VGA[dL]A[dL]V[dV]W[dV]W[dL]W[dD](NHMe)W-NHCH2CH2OH)
- cell viability/% [1]: 100.0%
- H+/Na+ transport activity normalized against the value of 1 (1.00) [2]: 1.15
- antibacterial activity [3]: -

SMILES: CC(C)C[C@@H](NC(=O)[C@H](C)NC(=O)CNC(=O)[C@@H](NC=O)C(C)C)C(=O)N[C@@H](C)C(=O)N[C@@H](C(=O)N[C@H](C(=O)N[C@@H](C(=O)N[C@@H](Cc1c[nH]c2ccccc12)C(=O)N[C@@H](C(=O)N[C@@H](Cc1c[nH]c2ccccc12)C(=O)N[C@@H](C(=O)N[C@@H](Cc1c[nH]c2ccccc12)C(=O)N[C@@H](C(=O)N[C@@H](Cc1c[nH]c2ccccc12)C(=O)NCCO)C(C)C)C(C)C)C(C)C)C(C)C)C(C)C)C(C)C [compound 9610] (For-VGA[dL]A[dV]V[dV]W[dV]W[dV]W[dV]W-NHCH2CH2OH)
- cell viability/% [1]: 100.0%
- H+/Na+ transport activity normalized against the value of 1 (1.00) [2]: 1.14
- antibacterial activity [3]: +

SMILES: CC(C)C[C@@H](NC(=O)[C@H](C)NC(=O)CNC(=O)[C@@H](NC=O)C(C)C)C(=O)N[C@@H](C)C(=O)N[C@@H](C(=O)N[C@H](C(=O)N[C@H](CC(C)C)C(=O)N[C@@H](Cc1c[nH]c2ccccc12)C(=O)N[C@H](CC(C)C)C(=O)N[C@@H](Cc1c[nH]c2ccccc12)C(=O)N[C@H](CC(C)C)C(=O)N[C@@H](Cc1c[nH]c2ccccc12)C(=O)N[C@H](CC(C)C)C(=O)N[C@@H](Cc1c[nH]c2ccccc12)C(=O)NCCO)C(C)C)C(C)C [compound 9628] (For-VGA[dL]A[dV]V[dL]W[dL]W[dL]W[dL]W-NHCH2CH2OH)
- cell viability/% [1]: 0.0%
- H+/Na+ transport activity normalized against the value of 1 (1.00) [2]: 1.16
- antibacterial activity [3]: +
